One block for each compound: values may come before it.
Experiments:
[1] = tested on: rat; conditions: Sub-acute repeat dose toxicity; sprague dawley; Oral; Gavage/Intubation; dose end: 28 day; group: systemic; systemic / clinical chemistry / alanine aminotransferase (alt/sgpt) / alanine aminotransferase (alt/sgpt) + systemic / clinical chemistry / …
[2] = tested on: dog; conditions: Sub-acute repeat dose toxicity; beagle; Oral; Gavage/Intubation; dose end: 28 day; group: systemic; systemic / clinical chemistry / alanine aminotransferase (alt/sgpt) / alanine aminotransferase (alt/sgpt) + systemic / clinical chemistry / …
[3] = tested on: rat; conditions: Other (NonGuideline or Guideline Not Listed); sprague dawley; Injection; Intravenous; dose end: 3 day; group: cannot be grouped; systemic / clinical chemistry / chloride / chloride + systemic / clinical chemistry / creatinine / creatinine + systemic / clinical …
[4] = tested on: rat; conditions: Sub-acute repeat dose toxicity; sprague dawley; Injection; Intravenous; dose end: 13 day; group: systemic; systemic / clinical chemistry / alanine aminotransferase (alt/sgpt) / alanine aminotransferase (alt/sgpt) + systemic / clinical chemistry / …
[5] = tested on: rat; conditions: Other (NonGuideline or Guideline Not Listed); wistar; Injection; Intravenous; dose end: 3 day; group: cannot be grouped; systemic / clinical chemistry / cholesterol / cholesterol + systemic / clinical chemistry / creatinine / creatinine + systemic / clinical …
[6] = tested on: mouse; conditions: Other (NonGuideline or Guideline Not Listed); cd1; Injection; Intravenous; dose end: 7 day; group: cannot be grouped; systemic / clinical chemistry / alanine aminotransferase (alt/sgpt) / alanine aminotransferase (alt/sgpt) + systemic / clinical chemistry / …
[7] = tested on: rat; conditions: Carcinogenicity, fischer, Oral, Feed, dose end: 78 week, group: systemic
[8] = tested on: mouse; conditions: Carcinogenicity, b6c3f1, Oral, Feed, dose end: 78 week, group: systemic
[9] = tested on: rat; conditions: Prenatal developmental toxicity study; sprague dawley; Dermal; Topical; dose end: 15 GD; group: maternal; systemic / in life observation / body weight / body weight gain + systemic / in life observation / clinical signs / [other]
[10] = tested on: rat; conditions: Prenatal developmental toxicity study, long evans, Oral, Gavage/Intubation, dose end: 15 GD
[11] = tested on: rabbit; conditions: Prenatal developmental toxicity study; new zealand white; Dermal; Topical; dose end: 18 GD; group: maternal; systemic / in life observation / clinical signs / [other]
[12] = tested on: dog; conditions: Chronic toxicity, beagle, Oral, Feed, dose end: 12 month, group: systemic
[13] = tested on: mouse; conditions: Carcinogenicity, cd1, Oral, Feed, dose end: 78 week, group: systemic
[14] = tested on: rat; conditions: Subchronic oral toxicity in rodents, sprague dawley, Feed, dose end: 13 week, group: systemic
[15] = tested on: rat; conditions: Combined chronic toxicity/carcinogenicity, other, Oral, Feed, dose end: 24 month, group: systemic
[16] = tested on: rat; conditions: Multigenerational reproductive toxicity study, sprague dawley, Oral, Feed, dose end: 2 generation
[17] = tested on: rat; conditions: Subchronic oral toxicity in rodents, sprague dawley, Gavage/Intubation, dose end: 90 day, group: systemic
[18] = tested on: rat; conditions: Neurotoxicity screening battery; sprague dawley; Oral; Gavage/Intubation; dose end: 13 week; group: cannot be grouped; systemic / in life observation / body weight / body weight gain + systemic / in life observation / clinical signs / red or crusty deposits …
[19] = tested on: rabbit; conditions: Subchronic dermal toxicity, new zealand white, Topical, dose end: 90 day, group: systemic, systemic / in life observation / clinical signs / erythema
[20] = tested on: mouse; conditions: Combined chronic toxicity/carcinogenicity; other; Oral; Feed; dose end: 24 month; group: systemic; systemic / clinical chemistry / alanine aminotransferase (alt/sgpt) / alanine aminotransferase (alt/sgpt) + systemic / clinical chemistry / …
[21] = tested on: dog; conditions: Subchronic oral toxicity in nonrodent, beagle, Feed, dose end: 90 day, group: systemic, systemic / clinical chemistry / alkaline phosphatase (alp/alk) / alkaline phosphatase (alp/alk) + systemic / in life observation / body …
[22] = tested on: rat; conditions: Subchronic oral toxicity in rodents, sprague dawley, Feed, dose end: 13 week, group: systemic; remark: listed apart in the source
[23] = tested on: rat; conditions: Prenatal developmental toxicity study, other, Oral, Gavage/Intubation, dose end: 15 GD
[24] = tested on: rat; conditions: Combined chronic toxicity/carcinogenicity; other; Oral; Feed; dose end: 2 year; group: systemic; systemic / clinical chemistry / alanine aminotransferase (alt/sgpt) / alanine aminotransferase (alt/sgpt) + systemic / clinical chemistry / …
[25] = tested on: rat; conditions: Subchronic oral toxicity in rodents, wistar, Feed, dose end: 3 month, group: systemic
[26] = tested on: dog; conditions: Chronic toxicity, beagle, Oral, Feed, dose end: 104 week, group: systemic
[27] = systemic / in life observation / body weight / body weight
[28] = systemic / pathology microscopic / liver / carcinoma + systemic / pathology microscopic / zymbal's gland / squamous cell carcinoma + …
[29] = systemic / in life observation / body weight / body weight + systemic / pathology microscopic / liver / carcinoma + systemic / in life …
[30] = group: developmental, developmental / developmental malformation / bone / irregular ossification + developmental / developmental malformation / general / runts + …
[31] = group: developmental, developmental / developmental malformation / bone / irregular ossification + developmental / developmental malformation / kidney / …
[32] = group: maternal, systemic / in life observation / clinical signs / [other] + systemic / in life observation / clinical signs / hyperactivity + reproductive…
[33] = systemic / pathology microscopic / liver / pigmentation
[34] = systemic / pathology microscopic / liver / pigmentation + systemic / pathology microscopic / liver / hypertrophy
[35] = systemic / organ weight / liver / absolute + systemic / organ weight / liver / relative to body weight + systemic / pathology microscopic / …
[36] = systemic / pathology microscopic / kidney / mineralization
[37] = systemic / organ weight / liver / relative to body weight
[38] = systemic / organ weight / liver / absolute
[39] = group: offspring, systemic / in life observation / body weight / offspring (pup) weight
[40] = group: parental, systemic / in life observation / body weight / body weight
[41] = systemic / clinical chemistry / fatty acids / non-esterified (free) fatty acids + systemic / clinical chemistry / triglycerides / …
[42] = group: developmental, developmental / developmental malformation / bone / full supernumerary
[43] = group: developmental, developmental / developmental malformation / bone / full supernumerary + developmental / developmental malformation / kidney / dilated renal…
[44] = group: maternal, systemic / in life observation / body weight / body weight gain + systemic / in life observation / clinical signs / alopecia + systemic / in…
[45] = systemic / clinical chemistry / glutamate dehydrogenase / glutamate dehydrogenase
[46] = systemic / clinical chemistry / glutamate dehydrogenase / glutamate dehydrogenase + systemic / clinical chemistry / cholesterol / …
[47] = systemic / clinical chemistry / aminopyrine-n-demethylase / aminopyrine-n-demethylase
[48] = systemic / clinical chemistry / aminopyrine-n-demethylase / aminopyrine-n-demethylase + systemic / clinical chemistry / cytochrome p450, nos…

Compound: CNS(=O)(=O)c1cc(C(=O)N2CCC(CCN3C4CCC3CC(n3c(C)nc5ccccc53)C4)(c3cccc(F)c3)CC2)c(Cl)cc1F (centres undefined)
LEL [1]: 500 mg/kg/day | LOAEL [1]: > 2000 mg/kg/day | NEL [1]: < 500 mg/kg/day | NOAEL [1]: ≥ 2000 mg/kg/day | LEL [2]: 250 mg/kg/day | LOAEL [2]: > 750 mg/kg/day | NEL [2]: < 250 mg/kg/day | NOAEL [2]: ≥ 750 mg/kg/day

LEL [3]: 150 mg/kg/day | NEL [3]: < 150 mg/kg/day | LEL [5]: 150 mg/kg/day | NEL [5]: 75 mg/kg/day
Compound: C[C@@H](O)[C@H]1C(=O)N2C(C(=O)[O-])=C(CN3c4cccc5c(CC[N+]67CC[N+](CC(N)=O)(CC6)CC7)ccc(c45)S3(=O)=O)[C@H](C)[C@H]12.[Cl-]
LOAEL [3]: > 150 mg/kg/day | NOAEL [3]: ≥ 150 mg/kg/day | LEL [4]: 150 mg/kg/day | LOAEL [4]: > 225 mg/kg/day | NEL [4]: 75 mg/kg/day | NOAEL [4]: ≥ 225 mg/kg/day | LOAEL [5]: > 225 mg/kg/day | NOAEL [5]: ≥ 225 mg/kg/day | LEL [6]: 400 mg/kg/day | LOAEL [6]: > 800 mg/kg/day | NEL [6]: 200 mg/kg/day | NOAEL [6]: ≥ 800 mg/kg/day

Compound: c1ccc(NNc2ccccc2)cc1 [1,2-Diphenylhydrazine]
LEL [7, 27]: 2 mg/kg/day | NEL [7, 27]: < 2 mg/kg/day | LOAEL [7, 28]: > 4 mg/kg/day | NOAEL [7, 28]: ≥ 4 mg/kg/day | LOAEL [8, 27]: 60 mg/kg/day | LEL [8, 29]: 60 mg/kg/day | NEL [8, 29]: 6 mg/kg/day | NOAEL [8, 29]: 6 mg/kg/day

Compound: NCCO [Ethanolamine]
LEL [9]: 225 mg/kg/day | LOAEL [9]: > 225 mg/kg/day | NEL [9]: 75 mg/kg/day | NOAEL [9]: ≥ 225 mg/kg/day | LOAEL [10, 30]: > 500 mg/kg/day | NOAEL [10, 30]: ≥ 500 mg/kg/day | LEL [10, 31]: 50 mg/kg/day | NEL [10, 31]: < 50 mg/kg/day | NEL ([10]; group: maternal, systemic / in life observation / clinical signs / [other] + systemic / in life observation / clinical signs / hyperactivity): 300 mg/kg/day | LEL [10, 32]: 500 mg/kg/day | LOAEL [10, 32]: > 500 mg/kg/day | NOAEL [10, 32]: ≥ 500 mg/kg/day | LEL [11]: 75 mg/kg/day | LOAEL [11]: > 75 mg/kg/day | NEL [11]: 25 mg/kg/day | NOAEL [11]: ≥ 75 mg/kg/day

Compound: CCCCC(CC)CN1C(=O)C2C3C=CC(C3)C2C1=O (centres undefined) [MGK-264]
NEL [12, 33]: 7.5 mg/kg/day | NOAEL [12, 33]: 7.5 mg/kg/day | LEL [12, 34]: 33.7 mg/kg/day | LOAEL [12, 34]: 33.7 mg/kg/day | LOAEL [13, 35]: 396 mg/kg/day | NOAEL [13, 35]: 49.5 mg/kg/day | LEL [13, 36]: 49.5 mg/kg/day | NEL [13, 36]: < 49.5 mg/kg/day | LOAEL ([14]; systemic / organ weight / liver / absolute + systemic / organ weight / liver / relative to body weight): 260 mg/kg/day | NOAEL ([14]; systemic / organ weight / liver / absolute + systemic / organ weight / liver / relative to body weight + systemic / clinical chemistry / …): 130 mg/kg/day | LEL [14, 37]: 140 mg/kg/day | NEL [14, 37]: < 140 mg/kg/day | LEL [15, 38]: 50 mg/kg/day | NEL [15, 38]: < 50 mg/kg/day | NOAEL ([15]; systemic / pathology microscopic / liver / hypertrophy + systemic / pathology microscopic / liver / proliferation + systemic / in life …): 50 mg/kg/day | LOAEL ([15]; systemic / pathology microscopic / liver / hypertrophy + systemic / pathology microscopic / liver / proliferation + systemic / organ weight…): 150 mg/kg/day | LEL [16, 39]: 61 mg/kg/day | LOAEL [16, 39]: 61 mg/kg/day | NEL [16, 39]: < 61 mg/kg/day | NOAEL [16, 39]: < 61 mg/kg/day | LEL [16, 40]: 61 mg/kg/day | NEL [16, 40]: < 61 mg/kg/day

Compound: CN(C)C(=S)[S-].[Na+] [Sodium dimethyldithiocarbamate]
LOAEL ([17]; systemic / clinical chemistry / alkaline phosphatase (alp/alk) / alkaline phosphatase (alp/alk) + systemic / clinical chemistry / glucose / …): 250 mg/kg/day | LEL [17, 37]: 0.5 mg/kg/day | NEL [17, 37]: < 0.5 mg/kg/day | NOAEL ([17]; systemic / organ weight / liver / relative to body weight + systemic / clinical chemistry / alkaline phosphatase (alp/alk) / alkaline …): 5 mg/kg/day | LEL [18]: 250 mg/kg/day | LOAEL [18]: 250 mg/kg/day | NEL [18]: 5 mg/kg/day | NOAEL [18]: 5 mg/kg/day | LEL [19]: 50 mg/kg/day | LOAEL [19]: 50 mg/kg/day | NEL [19]: < 50 mg/kg/day | NOAEL [19]: < 50 mg/kg/day

Compound: CC(C)(C)C(O)C(Oc1ccc(Cl)cc1)n1cncn1 (centres undefined) [Triadimenol]
LEL [20]: 71.4 mg/kg/day | LOAEL [20]: 71.4 mg/kg/day | NEL [20]: 17.9 mg/kg/day | NOAEL [20]: 17.9 mg/kg/day | LEL [21]: 44.2 mg/kg/day | LOAEL [21]: 44.2 mg/kg/day | NEL [21]: < 44.2 mg/kg/day | NOAEL [21]: < 44.2 mg/kg/day | LOAEL [22, 41]: 208 mg/kg/day | NEL [22, 41]: 8 mg/kg/day | NOAEL [22, 41]: 39.6 mg/kg/day | LEL [22, 35]: 39.6 mg/kg/day | LEL [23, 42]: 60 mg/kg/day | LOAEL [23, 42]: 60 mg/kg/day | NEL [23, 43]: 25 mg/kg/day | NOAEL [23, 43]: 25 mg/kg/day | LOAEL ([23]; group: maternal, systemic / in life observation / body weight / body weight gain): 15 mg/kg/day | NEL [23, 44]: 5 mg/kg/day | NOAEL [23, 44]: 5 mg/kg/day | LEL ([23]; group: maternal, systemic / in life observation / body weight / body weight gain + systemic / in life observation / food consumption / food consumption): 15 mg/kg/day | LEL [24]: 25 mg/kg/day | LOAEL [24]: 25 mg/kg/day | NEL [24]: 6.25 mg/kg/day | NOAEL [24]: 6.25 mg/kg/day | LEL [25, 45]: 30 mg/kg/day | LOAEL [25, 45]: 30 mg/kg/day | NEL [25, 46]: 7.5 mg/kg/day | NOAEL [25, 46]: 7.5 mg/kg/day | LEL [26, 47]: 211 mg/kg/day | LOAEL [26, 47]: 211 mg/kg/day | NEL [26, 48]: 56 mg/kg/day | NOAEL [26, 48]: 56 mg/kg/day

Reference: EPA's ToxRefDB 2
